Data taken from patent publication US20240002393A1, “SUBSTITUTED BENZO[f][l ,2,4JTRIAZOL0[4,3-a][l ,4J[…] GABA A GAMMA! POSITIVE ALLOSTERIC MODULATORS” (Hoffmann-La Roche Inc., priority 2020, published 2024).
pKi: −log10 of the molar value.

Columns and labels:
h-GABA-A α2β2γ1 = h-GABA-A α2β2γ1 (Homo sapiens (Human), UniProt P47869+Q8N1C3); assay: Two-electrode voltage clamp electrophysiology in Xenopus oocytes expressing GABAA receptors; type: cell-based; conditions: for Efficacy (GABA)%: % modulation of GABA EC20 = 100*(Fold increase−1), compound at 30-fold Ki; for Fold increase h-GABA-A α2β2γ1 oocyte @ 30-fold Ki: GABA EC20, test compound at about 30-fold its Ki α2β2γ1, at least 3 oocytes
Experimental: Xenopus laevis oocytes at maturation stages V-VI were used for the expression of cloned mRNA encoding GABAA receptor subunits. Oocytes ready for RNA micro-injection were bought from Ecocyte, Castrop-Rauxel, Germany and stored in modified Barth's medium (composition in mM: NaCl 88, KCl 1, NaHCO3 2.4, HEPES 10, MgSO4 0.82, CaNO3 0.33, CaCl2 0.33, pH=7.5) at 20° C. until the experiment.
Oocytes were plated in 96-well plates for microinjection using the Roboinject automated instrument (MultiChannelSystems, Reutlingen, Germany). Approximately 50 nL of an aqueous solution containing the RNA transcripts for the subunits of the desired GABAA receptor subtype was injected into each oocyte. […] Oocytes were kept in modified Barth's medium (composition in mM: NaCl 88, KCl 1, NaHCO3 […], HEPES 10, MgSO4 0.82, CaNO3 0.33, CaCl2 0.33, pH=7.5) at 20° C. until the experiment.
Electrophysiological experiments were performed using the Roboocyte instrument (MultiChannelSystems, Reutlingen, Germany) on days 3 to 5 after the micro-injection of mRNA. During the experiment the oocytes were constantly superfused by a solution containing (in mM) NaCl 90, KCl 1, HEPES 5, MgCl2 1 CaCl2 1 (pH 7.4). Oocytes were impaled by two glass microelectrodes (resistance: 0.5-0.8 MΩ) which were filled with a solution containing KCl 1M+K-acetate 1.5 M and voltage-clamped to −80 mV. The recordings were performed at room temperature using the Roboocyte two-electrode voltage clamp system (Multichannelsystem). After an initial equilibration period of 1.5 min GABA was added for 1.5 min at a concentration evoking approximately 20% of a maximal current response (EC20). After another rest interval of 2.5 min GABA was again added evoking a response of similar amplitude and shape. […] Current traces were recorded at a digitization rate of 10 Hz during and shortly before and after the GABA application.
Each compound and concentration was tested on at least 3 oocytes. Different oocytes were used for different compound concentrations.
For the analysis, the digitized current traces of the first and second GABA response were superimposed and, if necessary, rescaled to equal maximal amplitudes. The ratio between the two responses during the time interval of test compound application was calculated point by point. The extremum of the resulting “ratio trace” was taken as the efficacy (“Fold increase”) of the compound expressed as “% modulation of GABA EC20” (100*(Fold increase−1)).

[1] = target: human GABAA α1β3γ2 receptor (Homo sapiens (Human), UniProt P14867+P18507); assay: Radioligand binding assay, [3H]Flumazenil competition, γ2-containing GABAA subtypes; conditions: HEK293F membranes, [3H]Flumazenil 1 nM, mean of two determinations; read-out: Ki h-GABAA α1β3γ2
Experimental: The affinity of compounds at GABAA γ2 subunit-containing receptors was measured by competition for [^3H]Flumazenil (81.1 Ci/mmol; Roche) binding to HEK293F cells expressing human (transiently transfected) receptors of composition α1β3γ2.
Harvested pellets from HEK293F cells expressing the different GABAA γ2 receptor subtypes were resuspended in Mannitol Buffer pH 7.2-7.4 and processed as described above for the cells expressing the GABAA γ1 subunit-containing receptors.
Assays were incubated to equilibrium for 1 hour at 4° C. and harvested onto GF/C uni-filters (Packard) by filtration using a Packard harvester and washing with ice-cold wash buffer (50 mM Tris; pH 7.5). After drying, filter-retained radioactivity was detected by liquid scintillation counting. Ki values were calculated using Exel-Fit (Microsoft) and are the means of two determinations.

Cc1nnc2n1-c1ccc(Cl)c(Cl)c1C(c1c(F)cccc1F)=N[C@H]2C [Example 82, (4S)-7,8-dichloro-6-(2,6-difluorophenyl)-1,4-dimethyl-4H-[1,2,4]triazolo[4,3-a][1,4]benzodiazepine]
Efficacy (GABA)% (h-GABA-A α2β2γ1): 45% | Fold increase h-GABA-A α2β2γ1 oocyte @ 30-fold Ki (h-GABA-A α2β2γ1): 1.45 | pKi [1]: 6.58

C[C@@H]1N=C(c2ncccc2F)c2c(ccc(Br)c2Cl)-n2c(C3CC3)nnc21 [Example 83, (4S)-8-bromo-7-chloro-1-cyclopropyl-6-(3-fluoro-2-pyridyl)-4-methyl-4H-[1,2,4]triazolo[4,3-a][1,4]benzodiazepine]
Efficacy (GABA)% (h-GABA-A α2β2γ1): 102% | Fold increase h-GABA-A α2β2γ1 oocyte @ 30-fold Ki (h-GABA-A α2β2γ1): 2.02 | pKi [1]: 6.07

C[C@@H]1N=C(c2ncccc2F)c2c(ccc(Br)c2Cl)-n2cnnc21 [Example 84, (4S)-8-bromo-7-chloro-6-(3-fluoro-2-pyridyl)-4-methyl-4H-[1,2,4]triazolo[4,3-a][1,4]benzodiazepine]
Efficacy (GABA)% (h-GABA-A α2β2γ1): 203% | Fold increase h-GABA-A α2β2γ1 oocyte @ 30-fold Ki (h-GABA-A α2β2γ1): 3.03 | pKi [1]: 5.92

Cc1nnc2n1-c1ccc(Br)c(Cl)c1C(c1ncccc1F)=N[C@H]2C [Example 85, (4S)-8-bromo-7-chloro-6-(3-fluoro-2-pyridyl)-1,4-dimethyl-4H-[1,2,4]triazolo[4,3-a][1,4]benzodiazepine]
Efficacy (GABA)% (h-GABA-A α2β2γ1): 114% | Fold increase h-GABA-A α2β2γ1 oocyte @ 30-fold Ki (h-GABA-A α2β2γ1): 2.14 | pKi [1]: 6.15

Cc1ccc(-c2nnc3n2-c2ccc(Cl)c(Cl)c2C(c2c(F)cccc2F)=N[C@H]3C)nn1 [Example 86, (4S)-7,8-dichloro-6-(2,6-difluorophenyl)-4-methyl-1-(6-methylpyridazin-3-yl)-4H-[1,2,4]triazolo[4,3-a][1,4]benzodiazepine]
Efficacy (GABA)% (h-GABA-A α2β2γ1): 80% | Fold increase h-GABA-A α2β2γ1 oocyte @ 30-fold Ki (h-GABA-A α2β2γ1): 1.80 | pKi [1]: 6.07

Cc1cc(-c2nnc3n2-c2ccc(Cl)c(Cl)c2C(c2c(F)cccc2F)=N[C@H]3C)on1 [Example 87, 5-[(4S)-7,8-dichloro-6-(2,6-difluorophenyl)-4-methyl-4H-[1,2,4]triazolo[4,3-a][1,4]benzodiazepin-1-yl]-3-methyl-isoxazole]
Efficacy (GABA)% (h-GABA-A α2β2γ1): 42% | Fold increase h-GABA-A α2β2γ1 oocyte @ 30-fold Ki (h-GABA-A α2β2γ1): 1.42 | pKi [1]: 6.27

Cc1ccc(-c2nnc3n2-c2ccc(Cl)c(Br)c2C(c2c(F)cccc2F)=N[C@H]3C)nn1 [Example 88, (4S)-7-bromo-8-chloro-6-(2,6-difluorophenyl)-4-methyl-1-(6-methylpyridazin-3-yl)-4H-[1,2,4]triazolo[4,3-a][1,4]benzodiazepine]
Efficacy (GABA)% (h-GABA-A α2β2γ1): 105% | Fold increase h-GABA-A α2β2γ1 oocyte @ 30-fold Ki (h-GABA-A α2β2γ1): 2.05 | pKi [1]: 5.84

C[C@@H]1N=C(c2c(F)cccc2F)c2c(ccc(Cl)c2Br)-n2c1n[nH]c2=O [Example 89, (4S)-7-bromo-8-chloro-6-(2,6-difluorophenyl)-4-methyl-2,4-dihydro-[1,2,4]triazolo[4,3-a][1,4]benzodiazepin-1-one]
Efficacy (GABA)% (h-GABA-A α2β2γ1): 88% | Fold increase h-GABA-A α2β2γ1 oocyte @ 30-fold Ki (h-GABA-A α2β2γ1): 1.88 | pKi [1]: 5.83

Cc1nnc2n1-c1ccc(C(F)(F)F)c(Cl)c1C(c1c(F)cccc1F)=N[C@H]2C [Example 92, (4S)-7-chloro-6-(2,6-difluorophenyl)-1,4-dimethyl-8-(trifluoromethyl)-4H-[1,2,4]triazolo[4,3-a][1,4]benzodiazepine]
Efficacy (GABA)% (h-GABA-A α2β2γ1): 92% | Fold increase h-GABA-A α2β2γ1 oocyte @ 30-fold Ki (h-GABA-A α2β2γ1): 1.92 | pKi [1]: 5.65

Cc1nnc2n1-c1ccc(C(C)(F)F)c(Cl)c1C(c1c(F)cccc1F)=N[C@H]2C [Example 93, (4S)-7-chloro-8-(1,1-difluoroethyl)-6-(2,6-difluorophenyl)-1,4-dimethyl-4H-[1,2,4]triazolo[4,3-a][1,4]benzodiazepine]
Efficacy (GABA)% (h-GABA-A α2β2γ1): 169% | Fold increase h-GABA-A α2β2γ1 oocyte @ 30-fold Ki (h-GABA-A α2β2γ1): 2.69 | pKi [1]: 5.23

Cc1cc(-c2nnc3n2-c2ccc(Cl)c(Cl)c2C(c2c(F)cccc2F)=N[C@H]3C)ncn1 [Example 94, (4S)-7,8-dichloro-6-(2,6-difluorophenyl)-4-methyl-1-(6-methylpyrimidin-4-yl)-4H-[1,2,4]triazolo[4,3-a][1,4]benzodiazepine]
Efficacy (GABA)% (h-GABA-A α2β2γ1): 47% | Fold increase h-GABA-A α2β2γ1 oocyte @ 30-fold Ki (h-GABA-A α2β2γ1): 1.47 | pKi [1]: 6.22

Cc1nccc(-c2nnc3n2-c2ccc(Cl)c(Cl)c2C(c2c(F)cccc2F)=N[C@H]3C)n1 [Example 95, (4S)-7,8-dichloro-6-(2,6-difluorophenyl)-4-methyl-1-(2-methylpyrimidin-4-yl)-4H-[1,2,4]triazolo[4,3-a][1,4]benzodiazepine]
Efficacy (GABA)% (h-GABA-A α2β2γ1): 53% | Fold increase h-GABA-A α2β2γ1 oocyte @ 30-fold Ki (h-GABA-A α2β2γ1): 1.53 | pKi [1]: 6.33

Cc1cc(-c2nnc3n2-c2ccc(Cl)c(Cl)c2C(c2c(F)cccc2F)=N[C@H]3C)nc(C)n1 [Example 96, (4S)-7,8-dichloro-6-(2,6-difluorophenyl)-1-(2,6-dimethylpyrimidin-4-yl)-4-methyl-4H-[1,2,4]triazolo[4,3-a][1,4]benzodiazepine]
Efficacy (GABA)% (h-GABA-A α2β2γ1): 52% | Fold increase h-GABA-A α2β2γ1 oocyte @ 30-fold Ki (h-GABA-A α2β2γ1): 1.52 | pKi [1]: 6.32

Cc1ccc2c(c1Cl)C(c1c(F)cccc1F)=N[C@@H](C)c1nnc(C)n1-2 [Example 97, (4S)-7-chloro-6-(2,6-difluorophenyl)-1,4,8-trimethyl-4H-[1,2,4]triazolo[4,3-a][1,4]benzodiazepine]
Efficacy (GABA)% (h-GABA-A α2β2γ1): 148% | Fold increase h-GABA-A α2β2γ1 oocyte @ 30-fold Ki (h-GABA-A α2β2γ1): 2.48 | pKi [1]: 6.37

CC[C@@H]1N=C(c2c(F)cccc2F)c2c(ccc(Br)c2Cl)-n2c(C)nnc21 [Example 98, (4S)-8-bromo-7-chloro-6-(2,6-difluorophenyl)-4-ethyl-1-methyl-4H-[1,2,4]triazolo[4,3-a][1,4]benzodiazepine]
Efficacy (GABA)% (h-GABA-A α2β2γ1): 107% | Fold increase h-GABA-A α2β2γ1 oocyte @ 30-fold Ki (h-GABA-A α2β2γ1): 2.07 | pKi [1]: 5.83

Cc1nnc2n1-c1ccc(C(F)F)c(Cl)c1C(c1c(F)cccc1F)=N[C@H]2C [Example 99, (4S)-7-chloro-8-(difluoromethyl)-6-(2,6-difluorophenyl)-1,4-dimethyl-4H-[1,2,4]triazolo[4,3-a][1,4]benzodiazepine]
Efficacy (GABA)% (h-GABA-A α2β2γ1): 135% | Fold increase h-GABA-A α2β2γ1 oocyte @ 30-fold Ki (h-GABA-A α2β2γ1): 2.35 | pKi [1]: 5.70

COC[C@@H]1N=C(c2c(F)cccc2F)c2c(ccc(Br)c2Cl)-n2c(C)nnc21 [Example 100, (4R)-8-bromo-7-chloro-6-(2,6-difluorophenyl)-4-(methoxymethyl)-1-methyl-4H-[1,2,4]triazolo[4,3-a][1,4]benzodiazepine]
Efficacy (GABA)% (h-GABA-A α2β2γ1): 64% | Fold increase h-GABA-A α2β2γ1 oocyte @ 30-fold Ki (h-GABA-A α2β2γ1): 1.64 | pKi [1]: 6.54

Cc1nnc2n1-c1ccc(Br)c(Cl)c1C(c1c(F)cccc1F)=N[C@H]2CO [Example 101, [(4R)-8-bromo-7-chloro-6-(2,6-difluorophenyl)-1-methyl-4H-[1,2,4]triazolo[4,3-a][1,4]benzodiazepin-4-yl]methanol]
Efficacy (GABA)% (h-GABA-A α2β2γ1): 119% | Fold increase h-GABA-A α2β2γ1 oocyte @ 30-fold Ki (h-GABA-A α2β2γ1): 2.19 | pKi [1]: 6.31

Cc1nnc2n1-c1ccc(I)c(Cl)c1C(c1c(F)cccc1F)=N[C@H]2C [Example 102, (4S)-7-chloro-6-(2,6-difluorophenyl)-8-iodo-1,4-dimethyl-4H-[1,2,4]triazolo[4,3-a][1,4]benzodiazepine]
Efficacy (GABA)% (h-GABA-A α2β2γ1): 89% | Fold increase h-GABA-A α2β2γ1 oocyte @ 30-fold Ki (h-GABA-A α2β2γ1): 1.89 | pKi [1]: 6.56
